From patent US12258397B2 (Seattle Children's Hospital, priority 2014, dated 2025)
Values joined by “and” are separate entries in the source; they are usually repeats but may differ in a detail not shown here. Identical values can stand only once.

Columns and labels:
[1] = system: cells transfected with GFP:SB; test: GFP expression in cells transfected with GFP:SB (SB100X DNA or RNA) under MTX; type: cell-based; conditions: cells transfected with 5 ug of GFP:SB; 50 uM and 100 uM MTX tested
Method: Cells were electroporated with SB100X (DNA or RNA) or transposons carrying genes for GFP, CARS, or GFP/mCherry/BFP. FIG. 20A relates to lymphocytes; FIG. 20B relates to single cells; FIG. 20C relates to live cells; FIG. 20D relates to GFP; FIG. 20E relates to a time-line.
As shown in the figure are several scattergrams of the cells that are transfected with GFP gene carrying transposons. Several samples of cells are transfected with DNA comprising a gene for GFP expression (2.5 ug and 5 ug), mcGFP only, and RNA (1 ug and 3 ug).
FIGS. 24A-24B relate to expression of GFP in cells transfected with GFP:SB. […] FIG. 24B relates to the experiment was performed using RNA, however, DNA has a higher efficiency for leading to expression of the protein.

[2] = system: H9 cells; test: MTX selection and transgene persistence in H9 cells stably transfected with T3/GFP-T2A-DHFRdm transposon, flow cytometry; type: cell-based, human
Method: (§1) H9 cells were cultured in DMEM with 10% FBS. The optimized nucleofection protocol for H9 cells (Lonza) was followed (program X-001, Nucleofector Kit V). Per nucleofection, 1×10^6 cells were used with varying amounts of MC DNA. Cells were grown for a week after nucleofection to achieve stable transfection.
(§2) Live cells were selected based on propidium iodide exclusion by adding propidium iodide in the flow cytometry buffer to 2 μg/ml. Flow cytometry analysis was carried out on a MACSQuant Analyzer (Miltenyi Biotec) and LSRII (BD Biosciences). Collected data was analyzed with FlowJo software. Appropriate negative controls (untransfected H9 cells with and without propidium iodide staining, as well as cells transfected with single genes for GFP, BFP, and mCherry) were used for compensation and gating. A Becton Dickinson FACSAria II was used for cell sorting. Part of flow cytometry work was conducted at the UW Immunology Flow Cytometry Facility.

[3] = system: H9 cells; test: Transposon copy number by qPCR in MTX-selected H9 cells; type: cell-based, human
Method: Genomic DNA was extracted with Puregene Kit A according to the manufacturer's instructions (Qiagen), and qPCR was performed using a 7300 Real-Time PCR System (Applied Biosystems) using Universal SYBR Green Supermix (BioRad). Primers for qPCR were designed using Primer3 software: […]
MaxGFP primers are specific for the maxGFP gene in the transposon. Standard curves were generated using genomic DNA of a H9 clone with a single insertion of transposon (“gold standard”) obtained by limiting dilution method. Copy number was calculated using the […] (Schmittgen, T. D. and Livak, K. J. (2008), incorporated in its entirety herein). Characterization of SBTS Integration Distribution.
Plates were incubated for 2-3 weeks, after which clonal populations were moved to larger plates and expanded. GFP expression was confirmed by flow cytometry. Relative RT-qPCR analysis was performed using DNA of 60 individual clones in order to determine transposon copy number.
First, a “gold standard” clone with a single copy of integrated transposon was generated by limiting dilution method. […] A trend of increasing average transposon copy number with increasing selection pressure was observed. […] Statistical difference was assessed by Student's t-test.
Sixty clones were generated by limiting dilution method, GFP expression confirmed by flow cytometry, genomic DNA isolated, and the number of GFP genes per haploid genome analyzed by RT-PCR. Most clones (˜65%) contained multiple copies of GFP.

[4] = system: H9 cells; test: Multiplexed gene integration of three fluorescent protein transposons with MTX step selection, flow cytometry; type: cell-based, human; conditions: for cells expressing triple transgenes: 200 nM MTX 1 week
Method: as §1, §2
H9 cells were nucleofected with three minicircles containing three different reporter genes (maxGFP, mCherry, and BFP) in transposon cassettes and the SB100X transposase minicircle. Stably-transduced cells were then selected for 7 days with 200 nM and cell population assessed by flow cytometry analysis. […] Initial transfection efficiency assessed 24 hours after nucleofection, was 68% (FIG. 6A). The stably transduced population was 37±1.4%, reflecting 54% integration efficiency. Of this population, 19±0.6% expressed two or three different fluorescent proteins. […] Cell viability rebounded to ˜70% during the second round of selection due to further selection for overexpression of the DHFRdm gene.

[5] = 60 clones from population selected with 200 nM MTX

In the case of `CN(Cc1cnc2nc(N)nc(N)c2n1)c1ccc(C(=O)N[C@@H](CCC(=O)O)C(=O)O)cc1` [MTX, methotrexate], the “MTX concentration at which cells express GFP optimally” value [1] is reported as 50 µM, the “decrease in mean GFP expression by 4 weeks post-MTX withdrawal” value (shortened to “decrease in mean GFP expression”) ([2]; 50 nM MTX selection) is reported as 28% and the “decrease in mean GFP expression” value ([2]; 100 nM MTX selection) is reported as 27%. The “GFP+ population four weeks post-MTX withdrawal” value ([2]; 200 nM MTX for 2 weeks) was 97%, the “decrease in mean GFP expression” value ([2]; 200 nM MTX selection) was 21% and the “GFP+ population four weeks post-MTX withdrawal” value ([2]; all populations (50, 100, 200 nM MTX for 2 weeks)) was > 90%. For the same molecule, the “GFP+ cells” value ([2]; by 7 days post-selection, all conditions (50 to 200 nM MTX)) was > 94%, the “average number of integration events in clones” value [3, 5] was 1.8 and 1.78±0.69 and the “clones containing multiple copies of GFP” value [3, 5] was ~65%. For the same molecule, the “average integration events (transposon copy number per human haploid genome)” value ([3]; cell population selected with 200 nM MTX, RT-qPCR) was 2.1±0.45, the “cells expressing triple transgenes” value ([4]; then 500 nM MTX additional week) was 38.5±1.0% and the “cells expressing triple transgenes” value ([4]; then 1000 nM MTX additional week) was 53.1±0.3%. For the same molecule, the cell viability ([4]; during the second round of selection) was ~70% and the “cells expressing three transgene products” value ([4]; two-step selection, two successive MTX selection rounds) was 50%.
